Assay [1] addresses Muscarinic acetylcholine receptor M3 (Homo sapiens, UniProt P20309). Kind of assay: Displacement of [3H]-NMS from human recombinant M3 receptor expressed in CHO cell membranes measured after 60 mins by topcount liquid scintillation counting.
The test system of assay [2] is Cavia porcellus. Kind of assay: Bronchoprotective activity in Dunkan-Hartley guinea pig model of acetylcholine-induced bronchoconstriction assessed as efficacious dose that limited bronchrestriction response to 50 ug/mL dose of acetylcholine to doubling of baseline pulmonary resistance administered via nebulization for 10 mins measured at 1.5 hrs post dose by whole body plethysmography. It is filed as functional.

Muscarinic acetylcholine receptor M3, sequence (P20309 whole entry): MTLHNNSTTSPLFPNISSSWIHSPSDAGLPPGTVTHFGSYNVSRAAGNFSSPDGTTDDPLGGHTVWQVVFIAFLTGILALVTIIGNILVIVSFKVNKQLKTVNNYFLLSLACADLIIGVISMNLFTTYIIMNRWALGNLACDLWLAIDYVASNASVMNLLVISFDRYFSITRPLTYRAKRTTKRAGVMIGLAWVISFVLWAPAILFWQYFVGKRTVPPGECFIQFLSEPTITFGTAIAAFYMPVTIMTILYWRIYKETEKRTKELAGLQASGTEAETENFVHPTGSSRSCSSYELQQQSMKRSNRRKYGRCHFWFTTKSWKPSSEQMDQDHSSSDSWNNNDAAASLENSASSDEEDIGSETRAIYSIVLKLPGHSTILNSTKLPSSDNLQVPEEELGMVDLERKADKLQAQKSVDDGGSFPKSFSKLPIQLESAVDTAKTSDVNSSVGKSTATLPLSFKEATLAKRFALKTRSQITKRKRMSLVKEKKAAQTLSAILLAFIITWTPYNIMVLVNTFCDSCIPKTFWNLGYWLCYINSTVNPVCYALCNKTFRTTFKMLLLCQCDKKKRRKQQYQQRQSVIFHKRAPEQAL

By Ki is commonly meant a dissociation constant, usually derived from enzyme kinetics or from competition with a known ligand. On to `CCN(CCN1CCC(OC(=O)Nc2ccccc2-c2ccccc2)CC1)C(=O)c1ccc(CN2CCC(C(N)=O)CC2)cc1`, for which, in assay [1], the Ki was less than 5 nM. Regarding `CN(CCN1CCC(OC(=O)Nc2ccccc2-c2ccccc2)CC1)C(=O)c1ccc(CN2CCC(C(N)=O)CC2)cc1` [REVEFENACIN], the ED in assay [2] was less than 200 µg/mL.

(Values after ChEMBL document CHEMBL3882243, “Biphenyl compounds useful as muscarinic receptor antagonists” (2005).)
